Test results: patent publication US12129313B2, “Anti-inflammatory use of peptide” (ENLITISA (SHANGHAI) PHARMACEUTICAL CO., LTD, priority 2017, dated 2024)
Where no end group is shown, it is not given here. [ ]: non-standard residue; d: D form. Dopa = N[C@@H](Cc1ccc(O)c(O)c1)C(=O)O; Hyp = O=C(O)[C@@H]1C[C@@H](O)CN1

What was measured:
C57BL/6 mice [1] = assay: Air pouch model (carrageenan): exudate volume, pouch wall weight, exudate cell count; type: in vivo; parameters: Neutrophil (total cell count and classification) / Monocyte (total cell count and classification): unit not given here; details: for Pouch Wall Weight / Exudate volume: mean ± SD, 24 hours after carrageenan; for Exudate volume: injected into air pouch, per mouse: Positive 200 μg, M1-B/M1-A/Test 1.5 mg, M2-B/M2-A 4.5 mg, timing 1 hour (Positive, -B, Test) or 6 hours (-A), Table 1
Procedure: Healthy adult male C57BL/6 mice weighing between 20 and 30 g were supplied by Nanjing Biomedical Research Institute (NBRI) of Nanjing University, China. Prior to any experiments being conducted, mice were housed under standardized conditions (at a constant temperature or 22±2° C., with alternating 12 hour periods of light and darkness), and were fed on a standard mouse diet with water, for about a week.
General anesthesia was induced using intraperitoneal 3% chloral hydrate (Sinopharm Chemical Reagent Co., Ltd., Shanghai, China); 1 mL/10 g of body weight). The hair of the entire dorsum was shaved and depilated 1 day before sterile air injection.
(§1) Air pouches were produced by subcutaneous injection of sterile air (5 mL) into the intrascapular area of the mice. After three days, another injection of air (3 mL) was performed to maintain the pouches. In order to induce acute inflammation, three days after this final injection, animals received an injection of sterile carrageenan solution (CP Kelco, Taixing, Jiangsu Province, China; 1%, 0.5 mL; produced by adding 0.1 g of carrageenan powder into a beaker containing 10 mL of 0.9% saline solution and stirring). Mice were pre-treated with test samples or vehicle 1 hour before and 23 hours after the carrageenan injection into the subcutaneous air pouch. Animals were sacrificed 24 hours after the carrageenan injection.
The cavity was washed with 4 mL of sterile phosphate buffer solution (pH 7.4; prepared by dissolving 4 g of NaCl, 0.1 g of KCl, 1.749 g of Na2HPO4.12H2O and 0.1 g of KH2PO4 in ultrapure water, adjusting the pH to 7.4 with HCl and diluting with water to a total volume of 500 mL).
(§2) Exudates were collected and volumes were quantified. The total number of cells was determined with a haematocytometer (ADVIA 2120 Hematology System, Siemens Healthineers). The exudates were centrifuged at 3000 rpm for 10 minutes at 4° C., and the supernatants were collected and stored at −20° C. for ELISA analysis using standard ELISA test kits (Biolegend™ from Dakewe Biotech Co., Beijing, China or Abcam™, Abcam (Shanghai) Trading Co. Ltd, China) and an ELISA reader (SH-1000 Hitachi, Japan) for tissue necrosis factor alpha (TNF-α), interleukin 1 beta (IL-1β), interleukin 6 (IL-6), interleukin 10 (IL-10), prostaglandin E2 (PGE2), interferon gamma (IFN-γ) and 5-hydroxytryptamine (5-HT; serotonin).
After conducting some preliminary experiments to validate the model, an experiment was conducted in which mice were treated by administering test samples or vehicle in accordance with Table 1 below.
In Table 1, the M1-B, M2-B, M1-A and M2-A samples are MAP (Mefp-1) solutions of specified concentrations administered at different times relative to the carrageenan injection, as specified in the table. The solutions were prepared as follows. Blue mussels were harvested in the coastal area of Shandong Province, China. Mussel feet were collected, cut into small pieces and homogenized in an extraction buffer comprising 5% acetic acid in 4 mol/L of aqueous urea. The crude extracts were collected after centrifuging and then purified by liquid chromatography. The purified protein (semi-finished product; concentration 8 mg/mL; purity as measured by HPLC 91.72%; pH 4.2) was stored at 0° C. The solutions that were employed below were prepared by adding saline solution to this semi-finished product to obtain the concentrations described in Table 1.
Also in Table 1, “Test” is MAP Peptide, which was obtained from Innovagen AB, Sweden. The peptide was synthesized according to the relevant Mefp-1 amino acid sequence. The peptide powder was stored at −20° C. and dissolved in saline water at a concentration of 3.0 mg/mL, pH 5.5.
Dexamethasone (MedChemExpress, Shanghai, China) was obtained in powder form and dissolved in ultrapure water to obtain a solution with a concentration as described in Table 1.
All the substances listed in Table 1 were administrated topically by directly injecting into the air pouches.

C57BL/6 mice [2] = assay: Air pouch model: histology scoring of pouch wall (HE stained slices); type: in vivo; parameters: key to Inflammation score / Edema Score / Motility score: 1 = mild, 2 = moderate, 3 = severe; details: for Motility score: density of neutrophils, 1 to 3 points; for Motility score / Edema Score / Inflammation score: doses and timing per Table 1; for chronic inflammatory cell infiltration of the pouch wall / edema of the pouch wall / neutrophil infiltration of the pouch wall: histological description in words; for Edema Score / Inflammation score: pouch wall histology; for Edema Score: 1 mild to 3 most severe; for Inflammation score: 1 mild to 3 severe; for Sum: sum of inflammation, edema and motility scores
Procedure: as §1
Skin biopsies were taken from the air pouches. A part of the biopsy was fixed in formalin (produced by adding ultra pure water to 50 mL of a 40% formaldehyde solution (Nanchang Rain Dew Experimental Equipment Co., Ltd., Nanchang, […] Provence, China) up to a total volume of 500 mL) and analyzed by histological embedding in paraffin wax, sectioning and staining.
The histological specimens were analysed and an inflammation score, a motility score, an edema score and […] were estimated as follows.
The HE stained slices were observed under an optical microscope and were scored (1, 2 or 3 points) according to the perceived inflammation level (in cases showing only a small amount of inflammatory cells scattered in the area—1 point (mild); in cases where many inflammatory cells were observed—2 points (moderate); and, in cases with diffuse infiltration—3 points (severe)). A similar scoring system was employed for edema levels (3 points for most severe and 1 point for mild) after overall observation. Motility scores represented the density of neutrophils, which employed the same methodology as that employed for inflammatory cells.

TNF-α = assay: Air pouch model: ELISA of exudate for TNF-α; type: in vivo, mice; details: ±SD, doses and timing per Table 1
Procedure: as §1, with “Animals were sacrificed 24 hours after the carrageenan injection.” left out
as §2, with “serotonin). […]” for “serotonin).”

IL-6 = assay: Air pouch model: ELISA of exudate for IL-6; type: in vivo, mice; details: ±SD, doses and timing per Table 1
Procedure: as §1
as §2, with “The total number of cells was determined with a haematocytometer (ADVIA 2120 Hematology System, Siemens Healthineers).” left out

IFN-γ = assay: Air pouch model: ELISA of exudate for IFN-γ; type: in vivo, mice; details: ±SD, doses and timing per Table 1
Procedure: as §1, with “Animals were sacrificed 24 hours after the carrageenan injection.” left out
as §2, with “serotonin). […]” for “serotonin).”

C57BL/6 mice [3] = assay: Air Pouch Model II: histology scoring; type: in vivo
Procedure: (§3) Essentially the same procedure as that described in Example 1 above was followed, to treat mice by administering test samples or vehicle in accordance with Table 6 below.
(§4) In this example, MAP Peptide powder was dissolved in saline water at a concentration of 0.6 mg/mL at pH 5.5. Then 0.5 mL of the solution was injected into each air pouch in the group.

TNF-α, IL-6, and IL-1β = assay: Air Pouch Model II: ELISA of exudate; type: in vivo, mice; details: 300 μg/mouse into air pouch; FIGS. 2A-2C
Procedure: as §3, §4
In this example, ELISA analysis was carried out for TNF-α, IL-6, and IL-1β, which are shown graphically in FIGS. 2A-2C, respectively.

C57BL/6 mice [4] = assay: Acute wound model: wound contraction ratio; type: in vivo
Procedure: 6-8 weeks old male C57BL/6 mice were supplied by Changzhou Ovens Experimental Animal Co. Ltd (Changzhou, Jiangsu Province, China). Prior to any experiments being conducted, mice were housed under standardized conditions (at a constant temperature of 22±2° C., with alternating 12 hour periods of light and darkness), and were fed on a standard mouse diet with water, for about a week.
General anesthesia was induced using intraperitoneal 3% chloral hydrate (1 mL/10 g of body weight). The hair on the back was shaved by a baby hair shaver and depilated with cream. The skin area was wiped and sterilized with 75% alcohol twice.
An EMS skin biopsy punch (Electron Microscopy Sciences, P.O. Box 550, 1560 Industry Road, Hatfield, PA, USA) with 8 mm diameter was used to make a round wounds on each side of the midline of the back. The full thickness of skin was removed and the depth of the wound reached the fascia. Wounds were left open without a suture.
Different drugs were administrated topically at 50 μL/wound, once daily from Day 0 to Day 12, as show in Table 8 below. […] The model group was given same amount of normal saline. There were 12 mice in each group.
For this experiment, MAP Peptide was obtained from GL Biochem (Shanghai) Ltd. The peptide powder was stored at −20° C. and dissolved in saline at a concentration of 33 μg/m L.
20 μL of respective solutions were applied onto each wound surface in the relevant groups.
Wounds were dressed with gauze and transparent dresser after drug administration. Photographs were taken for each wound every other day from Day 0. Photos were scanned into a computer, and wound areas calculated using ImageJ image analysis software (National Institutes of Health, […]).
Photographs were taken for each wound every other day from Day 0. Wound healing was calculated by the wound contraction ratio (WCR) WCR=(A0−At)/A0×100% where A0 and At refer to the initial area at Day 0 and the wound area at the date of measurement (time t), respectively.

[5] = tested on: polymorphous light eruption; assay: MAP Peptide liquid spray in subjects with polymorphous light eruption; type: in vivo; details: 1.5 mg/mL spray in WFI
Procedure: MAP Peptide was dissolved in water for injection (WFI; prepared from TC-RO-0.25T/h-2 water treatment system, Yangzhou […] Treatment Devices & Engineering Co., Ltd., Yangzhou, China). The concentration of the solution was 1.5 mg/mL. The solution was loaded into a spray device. Enrolled subjects in the study were diagnosed with polymorphous light eruption (an inflammatory condition characterized by a rash caused by sun exposure in people who have developed sensitivity to sunlight). Prior to treatment, the patients presented symptoms including skin redness, papules, itching and swelling. Subjects were required to use the liquid spray in the morning and the evening after facial cleansing.

[6] = air pouch exudate, doses and timing per Table 1
[7] = 300 μg/mouse into air pouch, 1 hour before carrageenan
[8] = ±SD, topical once daily, MAP 5 μg/wound, MAP Peptide 6.57 μg/wound

Row | Molecule | Leukocyte (total cell count and classification) (C57BL/6 mice [1]; [6]) [mL⁻¹] | Pouch Wall Weight (C57BL/6 mice [1]; doses and timing per Table 1) [g] | Exudate volume (C57BL/6 mice [1]) [mL] | Motility score (C57BL/6 mice [2]) | chronic inflammatory cell infiltration of the pouch wall (C57BL/6 mice [2]) | edema of the pouch wall (C57BL/6 mice [2]) | neutrophil infiltration of the pouch wall (C57BL/6 mice [2]) | Edema Score (C57BL/6 mice [2]) | Inflammation score (C57BL/6 mice [2]) | Sum (C57BL/6 mice [2]) | TNF-α (TNF-α) | IL-6 (IL-6) | IFN-γ (IFN-γ) | further results
1 | C[C@@H]1C[C@H]2[C@@H]3CCC4=CC(=O)C=C[C@]4(C)[C@@]3(F)[C@@H](O)C[C@]2(C)[C@@]1(O)C(=O)CO [Positive, Dexamethasone, reference compound] | 3.49e+06 | 0.63 ± 0.09 | 3.3 ± 0.15 | 0.67 | moderate chronic inflammatory cell infiltration | moderate interstitial edema | a small amount of neutrophil infiltration | 1.67 | 1.83 | 4.17 | 65.08 ± 7.70 | 428.05 ± 267.27 | 388.83 ± 130.02 | –
2 | AKPSY[Hyp][Hyp]T[Dopa]K [MAP Peptide] | 4.74e+06 | 0.60 ± 0.17 | 3.43 ± 0.06 | 1.00 | mild to moderate chronic inflammatory cell infiltration | interstitial edema | a small amount of neutrophil infiltration | 1.00 | 1.67 | 3.67 | 58.49 ± 28.72 | 132.63 ± 137.34 | 377.31 ± 198.68 | Monocyte (total cell count and classification) (C57BL/6 mice [1]; [6]): 81.54 ×10^6; Neutrophil (total cell count and classification) (C57BL/6 mice [1]; [6]): 296.32 ×10^6; Inflammation score (C57BL/6 mice [3]; 300 μg/mouse (0.6 mg/mL, 0.5 mL) into air pouch, 1 hour before carrageenan): 1.6; Edema Score (C57BL/6 mice [3]; [7]): 1.8; Fibroplastic proliferation score (C57BL/6 mice [3]; [7]): 0.2; Sum (C57BL/6 mice [3]; 300 μg/mouse, printed sums equal inflammation + edema scores only): 3.4; anti-inflammatory effects (ELISA for TNF-α, IL-6, IL-1β) (TNF-α, IL-6, and IL-1β): very strong anti-inflammatory effects; improvement rate, (WCR MAP Peptide Group−WCR MAP Group)/WCR MAP Group×100% (C57BL/6 mice [4]; Day 6, versus MAP group): 52.96%; effect on wound healing compared with MAP (C57BL/6 mice [4]; acute wound model, Table 9): stronger effect on wound healing than MAP; wound contraction ratio (WCR), Day 2 (C57BL/6 mice [4]; [8]): 6.99 ± 2.02%; wound contraction ratio (WCR), Day 4 (C57BL/6 mice [4]; [8]): 18.65 ± 1.87%; wound contraction ratio (WCR), Day 6 (C57BL/6 mice [4]; [8]): 42.91 ± 0.57%; wound contraction ratio (WCR), Day 8 (C57BL/6 mice [4]; [8]): 48.73 ± 1.65%; wound contraction ratio (WCR), Day 0 (C57BL/6 mice [4]; ±SD, topical once daily, MAP 5 μg/wound, MAP Peptide 6.57 μg/wound, 8 mm full thickness wound): 0.00 ± 0%; erythema alleviation efficiency compared to MAP spray of same concentration [5]: much more rapid erythema alleviation efficiency; malaise [5]: inhibited malaise; subjects whose erythema completely disappeared in a few hours [5]: 50%; tested subjects with itch completely relieved within 1 minute [5]: 50%; time to alleviation of most of the observed erythema [5]: ≤ 1 min; time to relief of itching ([5]; morning and evening): ≤ 1 min
